Assay: xn = mol fraction of the nth substance listed
Conditions: 100 kPa, Liquid; for mass density: Vibrating tube method; for viscosity: Concentric cylinders viscometry

CCOP(=O)([O-])OCC.CCn1cc[n+](C)c1 [1-ethyl-3-methylimidazolium diethyl phosphate] + O
Conditions | mass density, 333.15 K [kg/m3] | mass density, 343.15 K [kg/m3] | mass density, 353.15 K [kg/m3] | mass density, 363.15 K [kg/m3] | mass density, 373.15 K [kg/m3] | viscosity, 343.15 K [mPa·s] | viscosity, 353.15 K [mPa·s] | viscosity, 363.15 K [mPa·s] | viscosity, 373.15 K [mPa·s]
x2 = 0.012 | 1124.1 | 1117.5 | 1111 | 1104.5 | 1098.2 | 42.1 | 30.2 | 22.5 | 17.3
x2 = 0.061 | 1124.6 | 1118 | 1111.5 | 1104.9 | 1098.5 | 40.4 | 29 | 21.6 | 16.5
x2 = 0.123 | 1125 | 1118.4 | 1111.9 | 1105.2 | 1098.9 | 38.6 | 27.7 | 20.6 | 15.8
x2 = 0.183 | 1125.4 | 1118.8 | 1112.1 | 1105.6 | 1099.1 | 37.4 | 26.9 | 20 | 15.3
x2 = 0.259 | 1126 | 1119.3 | 1112.7 | 1106.1 | 1099.6 | 34.1 | 24.5 | 18.3 | 14.1
x2 = 0.502 | 1127.4 | 1120.5 | 1113.7 | 1106.8 | 1099.9 | 19.6 | 14.4 | 11.2 | 8.9
x2 = 0.765 | 1121.2 | 1113.8 | 1106.3 | 1098.7 | 1091.2 | 7.58 | 5.88 | 4.69 | 3.83
x2 = 0.88 | 1094 | 1086.1 | 1078.1 | 1070 | 1061.9 | 2.67 | 2.18 | 1.83 | 1.55

Source: the NIST ThermoML archive (doi:10.1021/acs.jced.7b00788)
